Measurements from ChEMBL document CHEMBL5257129, “Design, synthesis, and anticancer evaluation of arylurea derivatives as potent and selective type II irreversible covalent FGFR4 inhibitors” (Bioorg Med Chem, 2023).

Experiments:
Huh-7 [1] = test: Antiproliferative activity against human Huh-7 cells assessed as inhibition of cell growth at 10 uM measured after 72 hrs by CCK8 assay; assay type: functional
Hep 3B2 [2] = test: Antiproliferative activity against human Hep3B cells assessed as inhibition of cell growth at 10 uM measured after 72 hrs by CCK8 assay; assay type: functional
Huh-7 [3] = test: Antiproliferative activity against human Huh-7 cells assessed as inhibition of cell growth measured after 72 hrs by CCK8 assay; assay type: functional, cell-based; settings: Huh-7, 72 h
Hep 3B2 [4] = test: Antiproliferative activity against human Hep3B cells assessed as inhibition of cell growth measured after 72 hrs by CCK8 assay; assay type: functional, cell-based
[5] = Cmax in Sprague-Dawley rat at 5 mg/kg, iv measured upto 24 hrs by LC/MS/MS analysis; assay type: ADME, organism-based; set-up: time < 24 hrs, dose 5 mg/kg, route iv; settings: in vivo
[6] = Mean residence time (0 to t) in Sprague-Dawley rat at 5 mg/kg, iv measured upto 24 hrs by LC/MS/MS analysis; assay type: ADME, organism-based; settings: in vivo
[7] = Tmax in Sprague-Dawley rat at 5 mg/kg, iv measured upto 24 hrs by LC/MS/MS analysis; assay type: ADME, organism-based; settings: in vivo
[8] = AUC(0 to infinity) in Sprague-Dawley rat at 20 mg/kg, po measured upto 24 hrs by LC/MS/MS analysis; assay type: ADME, organism-based; set-up: dose 20 mg/kg, time < 24 hrs, route po; settings: in vivo
[9] = Half life in Sprague-Dawley rat at 20 mg/kg, po measured upto 24 hrs by LC/MS/MS analysis; assay type: ADME, organism-based; settings: in vivo
[10] = AUC(0 to t) in Sprague-Dawley rat at 5 mg/kg, iv measured upto 24 hrs by LC/MS/MS analysis; assay type: ADME, organism-based; set-up: time < 24 hrs, dose 5 mg/kg, route iv; settings: in vivo
[11] = Tmax in Sprague-Dawley rat at 20 mg/kg, po measured upto 24 hrs by LC/MS/MS analysis; assay type: ADME, organism-based; settings: in vivo
[12] = AUC(0 to infinity) in Sprague-Dawley rat at 5 mg/kg, iv measured upto 24 hrs by LC/MS/MS analysis; assay type: ADME, organism-based; set-up: dose 5 mg/kg, time < 24 hrs, route iv; settings: in vivo
[13] = Apparent volume of distribution in Sprague-Dawley rat at 5 mg/kg, iv measured upto 24 hrs by LC/MS/MS analysis; assay type: ADME, organism-based; settings: in vivo, read-out: Vz
[14] = Half life in Sprague-Dawley rat at 5 mg/kg, iv measured upto 24 hrs by LC/MS/MS analysis; assay type: ADME, organism-based; settings: in vivo
[15] = Clearance in Sprague-Dawley rat at 5 mg/kg, iv measured upto 24 hrs by LC/MS/MS analysis; assay type: ADME, organism-based; settings: in vivo
[16] = Cmax in Sprague-Dawley rat at 20 mg/kg, po measured upto 24 hrs by LC/MS/MS analysis; assay type: ADME, organism-based; set-up: dose 20 mg/kg, time < 24 hrs, route po; settings: in vivo
[17] = AUC(0 to t) in Sprague-Dawley rat at 20 mg/kg, po measured upto 24 hrs by LC/MS/MS analysis; assay type: ADME, organism-based; set-up: dose 20 mg/kg, time < 24 hrs, route po; settings: in vivo
[18] = Mean residence time (0 to t) in Sprague-Dawley rat at 20 mg/kg, po measured upto 24 hrs by LC/MS/MS analysis; assay type: ADME, organism-based; settings: in vivo
[19] = Initial plasma concentration in Sprague-Dawley rat at 5 mg/kg, iv measured upto 24 hrs by LC/MS/MS analysis; assay type: ADME, organism-based

Compound: C=CC(=O)Nc1ccc(-c2ccc(NC(=O)Nc3ccc(CN4CCN(C)CC4)c(C(F)(F)F)c3)cc2C)cn1
- inhibition at 10 µM (Huh-7 [1]): 96.9%
- inhibition at 10 µM (Hep 3B2 [2]): 95.3%

Compound: C=CC(=O)Nc1ccc(-c2ccc(NC(=O)Nc3ccc(CN4CCN(C)CC4)c(C(F)(F)F)c3)c(C)c2)cn1
- inhibition at 10 µM (Huh-7 [1]): 94.8%
- IC50 (Huh-7 [3]): 3350 nM
- IC50 (Hep 3B2 [4]): 3180 nM
- inhibition at 10 µM (Hep 3B2 [2]): 94.6%

Compound: C=CC(=O)Nc1ccc(-c2ccc(NC(=O)Nc3ccc(CN4CCN(C)CC4)c(C(F)(F)F)c3)cc2)cn1
- inhibition at 10 µM (Huh-7 [1]): 94.8%
- inhibition at 10 µM (Hep 3B2 [2]): 95.8%

Compound: C=CC(=O)Nc1ccc(Oc2ccc(NC(=O)Nc3ccc(CN4CCN(C)CC4)c(C(F)(F)F)c3)c(C)c2)cn1
- inhibition at 10 µM (Huh-7 [1]): 87.2%
- inhibition at 10 µM (Hep 3B2 [2]): 84.7%

Compound: C=CC(=O)Nc1ccc(-c2ccc(NC(=O)Nc3ccc(CN4CCN(C)CC4)c(C(F)(F)F)c3)nc2)cn1
- inhibition at 10 µM (Huh-7 [1]): 59%
- inhibition at 10 µM (Hep 3B2 [2]): 67%

Compound: C=CC(=O)Nc1ccc(-c2cnc(NC(=O)Nc3ccc(CN4CCN(C)CC4)c(C(F)(F)F)c3)cn2)cn1
- inhibition at 10 µM (Huh-7 [1]): 84.5%
- inhibition at 10 µM (Hep 3B2 [2]): 86.1%

Compound: C=CC(=O)Nc1ccc(-c2ccc(NC(=O)Nc3ccc(CN4CCN(CC)CC4)c(C(F)(F)F)c3)c(C)c2)cn1
- inhibition at 10 µM (Huh-7 [1]): 80.3%
- inhibition at 10 µM (Hep 3B2 [2]): 85.4%

Compound: C=CC(=O)Nc1ccc(-c2ccc(NC(=O)Nc3ccc(CN4CCN(C)CC4)c(C(F)(F)F)c3)c(Cl)c2)cn1
- inhibition at 10 µM (Huh-7 [1]): 91.4%
- IC50 (Huh-7 [3]): 1620 nM
- IC50 (Hep 3B2 [4]): 1270 nM
- inhibition at 10 µM (Hep 3B2 [2]): 99.1%

Compound: Cc1ccc(C(=O)Nc2ccc(CN3CCN(C)CC3)c(C(F)(F)F)c2)cc1C#Cc1cnc2cccnn12 [PONATINIB]
- inhibition at 10 µM (Huh-7 [1]): 90.5%
- IC50 (Huh-7 [3]): 990 nM
- IC50 (Hep 3B2 [4]): 720 nM
- inhibition at 10 µM (Hep 3B2 [2]): 95.5%

Compound: C=C(F)C(=O)Nc1ccc(-c2ccc(NC(=O)Nc3ccc(CN4CCN(C)CC4)c(C(F)(F)F)c3)c(C)c2)cn1
- inhibition at 10 µM (Huh-7 [1]): 93%
- IC50 (Huh-7 [3]): 3380 nM
- IC50 (Hep 3B2 [4]): 3240 nM
- inhibition at 10 µM (Hep 3B2 [2]): 91.2%

Compound: Cc1cc(-c2ccc(NC(=O)CCl)nc2)ccc1NC(=O)Nc1ccc(CN2CCN(C)CC2)c(C(F)(F)F)c1
- inhibition at 10 µM (Huh-7 [1]): 80.9%
- IC50 (Huh-7 [3]): 21500 nM
- IC50 (Hep 3B2 [4]): 22100 nM
- inhibition at 10 µM (Hep 3B2 [2]): 87.6%

Compound: C=CC(=O)Nc1ccc(Oc2ccc(NC(=O)Nc3ccc(CN4CCN(C)CC4)c(C(F)(F)F)c3)cc2)cn1
- Cmax [5]: 4190 ng/mL
- inhibition at 10 µM (Huh-7 [1]): 97.7%
- MRT last at 24 h [6]: 1.25 h
- IC50 (Huh-7 [3]): 250 nM
- Tmax [7]: 4.98 min
- IC50 (Hep 3B2 [4]): 220 nM
- AUC(0-inf) [8]: 149 ng·h/mL
- inhibition at 10 µM (Hep 3B2 [2]): 91%
- half-life [9]: 3.12 h
- AUC(0-t) at 24 h [10]: 4240 ng·h/mL
- Tmax [11]: 2.67 h
- AUC(0-inf) [12]: 4260 ng·h/mL
- Vd [13]: 8.1 L/kg
- half-life [14]: 4.75 h
- clearance [15]: 19.6 mL/min/kg
- Cmax [16]: 23.7 ng/mL
- AUC(0-t) at 24 h [17]: 140 ng·h/mL
- MRT last at 24 h [18]: 3.99 h
- C0 at 24 h [19]: 4930 ng/mL

Compound: C=CC(=O)Nc1ccc(-c2ccc(NC(=O)Nc3ccc(CN4CCN(C)CC4)c(C(F)(F)F)c3)cc2F)cn1
- inhibition at 10 µM (Huh-7 [1]): 96.7%
- inhibition at 10 µM (Hep 3B2 [2]): 95.7%

Compound: C/C=C/C(=O)Nc1ccc(Oc2ccc(NC(=O)Nc3ccc(CN4CCN(C)CC4)c(C(F)(F)F)c3)c(C)c2)cn1
- inhibition at 10 µM (Huh-7 [1]): 86.7%
- IC50 (Huh-7 [3]): 1020 nM
- IC50 (Hep 3B2 [4]): 1120 nM
- inhibition at 10 µM (Hep 3B2 [2]): 87%

Compound: CC#CC(=O)Nc1ccc(Oc2ccc(NC(=O)Nc3ccc(CN4CCN(C)CC4)c(C(F)(F)F)c3)c(C)c2)cn1
- inhibition at 10 µM (Huh-7 [1]): 93.2%
- inhibition at 10 µM (Hep 3B2 [2]): 92.3%
